One may read the inhibition as the relative decrease from the control value, in per cent. As a reminder, the IC50 is the concentration at which inhibition is half-maximal. Higher therefore signals a need for much substance.

33 compounds from ChEMBL document CHEMBL1136973, “Structure-activity relationships of heteroaromatic esters as human rhinovirus 3C protease inhibitors” (Bioorg Med Chem Lett, 2009) can be followed below.

The source made the active and inactive calls. The calls are words filed in the database; no cut-off is given here.

For the first test, the target named is Genome polyprotein (rhinovirus A16) (UniProt Q82122). The test can be described thus: Inhibition of HRV-16 protease 3C expressed in Escherichia coli BL21(DE3) at 1 uM by FRET assay.
Chain of Genome polyprotein (rhinovirus A16) (Q82122 whole entry): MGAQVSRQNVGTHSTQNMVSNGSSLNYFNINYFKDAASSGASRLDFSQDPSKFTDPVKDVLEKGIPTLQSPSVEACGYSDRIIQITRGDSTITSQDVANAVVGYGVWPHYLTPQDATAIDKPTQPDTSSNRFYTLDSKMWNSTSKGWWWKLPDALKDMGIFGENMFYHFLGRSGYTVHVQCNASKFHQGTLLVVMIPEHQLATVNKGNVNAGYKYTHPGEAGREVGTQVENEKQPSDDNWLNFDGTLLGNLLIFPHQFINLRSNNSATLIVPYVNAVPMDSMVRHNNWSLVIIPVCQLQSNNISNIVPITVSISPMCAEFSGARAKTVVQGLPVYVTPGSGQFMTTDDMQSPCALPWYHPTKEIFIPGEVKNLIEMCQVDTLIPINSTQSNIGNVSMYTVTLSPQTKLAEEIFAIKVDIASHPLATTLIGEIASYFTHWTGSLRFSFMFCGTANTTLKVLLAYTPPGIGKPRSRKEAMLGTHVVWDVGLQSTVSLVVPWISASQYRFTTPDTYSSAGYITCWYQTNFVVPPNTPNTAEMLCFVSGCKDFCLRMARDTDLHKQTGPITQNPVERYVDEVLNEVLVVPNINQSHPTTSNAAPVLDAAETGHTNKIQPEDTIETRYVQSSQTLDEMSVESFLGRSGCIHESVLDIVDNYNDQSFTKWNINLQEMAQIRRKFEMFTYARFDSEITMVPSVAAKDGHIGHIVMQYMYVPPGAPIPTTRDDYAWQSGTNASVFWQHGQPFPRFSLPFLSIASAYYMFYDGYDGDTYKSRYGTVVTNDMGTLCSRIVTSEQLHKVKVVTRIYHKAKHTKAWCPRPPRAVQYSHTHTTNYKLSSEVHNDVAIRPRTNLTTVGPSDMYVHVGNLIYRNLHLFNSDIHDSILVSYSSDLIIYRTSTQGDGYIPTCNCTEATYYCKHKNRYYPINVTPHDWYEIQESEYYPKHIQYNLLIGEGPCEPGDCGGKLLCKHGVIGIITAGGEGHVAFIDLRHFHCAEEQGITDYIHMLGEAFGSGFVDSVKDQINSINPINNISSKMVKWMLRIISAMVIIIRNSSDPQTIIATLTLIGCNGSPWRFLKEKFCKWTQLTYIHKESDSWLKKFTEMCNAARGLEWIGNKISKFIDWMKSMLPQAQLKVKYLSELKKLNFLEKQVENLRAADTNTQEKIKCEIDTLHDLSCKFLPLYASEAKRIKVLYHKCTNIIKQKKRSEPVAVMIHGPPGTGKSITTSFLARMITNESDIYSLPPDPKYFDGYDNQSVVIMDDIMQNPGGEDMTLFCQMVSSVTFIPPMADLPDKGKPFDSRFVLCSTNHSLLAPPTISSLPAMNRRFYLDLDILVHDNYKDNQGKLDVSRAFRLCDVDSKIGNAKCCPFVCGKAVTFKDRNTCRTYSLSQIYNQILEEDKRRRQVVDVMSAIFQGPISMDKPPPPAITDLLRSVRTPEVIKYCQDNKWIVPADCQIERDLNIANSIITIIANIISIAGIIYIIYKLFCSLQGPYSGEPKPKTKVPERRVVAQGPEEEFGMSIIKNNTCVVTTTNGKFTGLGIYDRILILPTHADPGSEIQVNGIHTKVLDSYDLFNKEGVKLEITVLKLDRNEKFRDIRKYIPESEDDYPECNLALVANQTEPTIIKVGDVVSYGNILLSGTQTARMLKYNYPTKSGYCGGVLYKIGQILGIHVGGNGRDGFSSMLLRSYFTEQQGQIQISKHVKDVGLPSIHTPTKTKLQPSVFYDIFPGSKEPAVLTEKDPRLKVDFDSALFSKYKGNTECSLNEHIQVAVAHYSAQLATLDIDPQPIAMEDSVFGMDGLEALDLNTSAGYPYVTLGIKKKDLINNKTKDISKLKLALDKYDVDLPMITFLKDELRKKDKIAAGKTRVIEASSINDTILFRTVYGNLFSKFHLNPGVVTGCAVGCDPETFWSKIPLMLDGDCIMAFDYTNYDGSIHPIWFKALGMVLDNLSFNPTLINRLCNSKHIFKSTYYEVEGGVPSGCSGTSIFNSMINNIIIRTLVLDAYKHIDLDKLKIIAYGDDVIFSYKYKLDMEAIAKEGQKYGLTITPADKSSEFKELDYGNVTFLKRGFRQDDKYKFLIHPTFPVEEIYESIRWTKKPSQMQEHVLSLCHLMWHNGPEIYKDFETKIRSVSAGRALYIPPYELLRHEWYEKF
On to `O=C(Oc1cccnc1O)c1ccco1`, for which the inhibition entry was “inactive”.

For `O=C(Oc1cccnc1C(=O)O)c1ccco1`, the inhibition result was “inactive”.

In the case of `O=C(Oc1cc(Cl)cnc1O)c1ccco1`, the inhibition entry was “inactive”.

`O=C(Oc1cccnc1)c1ccco1` registered an inhibition of 8%.

For `O=C(Oc1ccccn1)c1ccco1`, the inhibition entry is “inactive”.

Compound `O=C(Oc1cncc(Cl)c1)c1ccc(-c2ccccc2)o1` registered an inhibition of 80%.

Regarding `O=C(CCc1ccccc1)Oc1cncc(Br)c1`, the inhibition was found to be 34%.

On to `CCOc1nc(Cc2ccccc2)oc1C(=O)Oc1cncc(Cl)c1`, for which the inhibition turned out to be 5%.

For `NC(=O)c1ncccc1OC(=O)c1ccco1`, the inhibition is 14%.

With `O=C(Oc1cncc(Cl)c1)c1ccc2ccccc2c1`, the inhibition came out at 80%.

Compound `O=C(Oc1cncc(Br)c1)c1ccco1` showed an inhibition of 90%.

With `CCOc1nc(-c2ccccc2)oc1C(=O)Oc1cncc(Cl)c1`, the inhibition entry was “inactive”.

Regarding `O=C(Oc1cncc(Cl)c1)c1cccs1`, the inhibition is 64%.

For the compound `O=C(Oc1cncc(Cl)c1)c1ccc(-c2ccc(Cl)cc2)o1`, the inhibition came out at 89%.

With `NC(=O)c1ccc(OC(=O)c2ccco2)cc1`, the inhibition is 5%.

In turn, `O=C(Oc1cncc(Cl)c1)c1ccccc1` displayed an inhibition of 59%.

The compound `O=C(Oc1cncc(Cl)c1)c1ccco1` returned an inhibition of 87%.

The compound `NC(=O)c1cccc(OC(=O)c2ccco2)c1` gave an inhibition of 5%.

Regarding `O=C(Oc1cncc(Cl)c1)c1cn(-c2ccc(C(F)(F)F)cc2)cn1`, the inhibition amounted to 40%.

`O=C(Oc1cncc(Cl)c1)c1cccc2ccccc12`: the inhibition is 75%.

For the compound `Cc1ccc(-c2ccc(C(=O)Oc3cncc(Cl)c3)o2)cc1`, the inhibition turned out to be 79%.

With `CCOc1nc(/C=C/c2ccccc2)oc1C(=O)Oc1cncc(Cl)c1`, the inhibition amounted to 87%.

`Cc1cc(C(=O)Oc2cncc(Cl)c2)no1`: the inhibition result is “inactive”.

`O=C(Oc1cc(=O)[nH]c2ccccc12)c1ccco1`: the inhibition worked out at 98%.

Compound `CCOc1nc(-c2ccc3ccccc3c2)oc1C(=O)Oc1cncc(Cl)c1` had an inhibition of 34%.

For the compound `O=C(Oc1cncc(Cl)c1)c1c[nH]cn1`, the inhibition was determined as 82%.

In turn, `Nc1ncccc1OC(=O)c1ccco1` came in with an inhibition of 24%.

Consider `CCOc1nc(C(c2ccccc2)c2ccccc2)oc1C(=O)Oc1cncc(Cl)c1`, for which the inhibition was 5%.

In the case of `O=C(/C=C/c1ccccc1)Oc1cncc(Br)c1`, the inhibition turned out to be 63%.

On to `O=C(Oc1ccncc1)c1ccco1`, for which the inhibition entry is “inactive”.

`O=C(Oc1cncc(Cl)c1)c1ccc(-c2ccc([N+](=O)[O-])cc2)o1` yielded an inhibition of 60%.

The target in another test is Replicase polyprotein 1ab (Severe acute respiratory syndrome-related coronavirus, UniProt P0C6X7). Description: Inhibition of SARS coronavirus isolate Tor2 3C-like protease by FRET assay.
Compound `O=C(Oc1cccnc1)c1cccs1` gave an IC50 of 500 nM.

Another test deals with Genome polyprotein (rhinovirus A16, UniProt Q82122). The test can be described thus: Inhibition of HRV-16 protease 3C expressed in Escherichia coli BL21(DE3) by FRET assay.
Chain of Genome polyprotein (Q82122 1511-1693 limits assumed): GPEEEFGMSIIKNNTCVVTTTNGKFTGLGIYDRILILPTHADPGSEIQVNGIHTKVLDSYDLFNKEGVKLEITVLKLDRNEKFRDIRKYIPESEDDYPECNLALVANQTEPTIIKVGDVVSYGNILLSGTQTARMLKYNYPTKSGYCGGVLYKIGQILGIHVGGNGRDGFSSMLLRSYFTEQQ
In turn, `O=C(Oc1cncc(Cl)c1)c1ccc2ccccc2c1` registered a concentration for half-maximal inhibition (IC50) of 710 nM.

`O=C(Oc1cncc(Br)c1)c1ccco1` showed an IC50 of 80 nM.

As for `CCOc1nc(/C=C/c2ccccc2)oc1C(=O)Oc1cncc(Cl)c1`, the IC50 turned out to be 690 nM.

`O=C(Oc1cc(=O)[nH]c2ccccc12)c1ccco1` showed a concentration for half-maximal inhibition (IC50) of 200 nM.

For the compound `O=C(Oc1cncc(Cl)c1)c1cnc[nH]1`, half-maximal inhibition (IC50) was put at 290 nM.

The target of another test is Genome polyprotein (rhinovirus A16) (UniProt Q82122). The test can be described thus: Inhibition of HRV-16 protease 3C expressed in Escherichia coli BL21(DE3) at 10 uM by FRET assay.
The compound `NC(=O)c1ccc(OC(=O)c2ccco2)cc1` registered an inhibition of 21%.
